Patent US7807686B2, “2-(4-oxo-4H-quinazolin-3-yl)acetamides and their use as vasopressin V3 antagonists” (N.V. Organon, priority 2005, dated 2010)

Key:
V3 receptor = molecular target: T1, V3 receptor (Rattus norvegicus, UniProt P48974); test: Block of AVP-induced ACTH release from rat anterior pituitary corticotrophs; type: cell-based; conditions: inhibition of ACTH release induced by 3×10^-9 mol.L^-1 AVP, ELISA; read-out: V3 receptor antagonism in isolated rat anterior pituitary cells
T1 construct: Anterior pituitary corticotrophs were prepared from adult female Sprague-Dawley rats; from tissue; host or cells: primary anterior pituitary corticotrophs from adult female Sprague-Dawley rats
T1 sequence (P48974 1-425): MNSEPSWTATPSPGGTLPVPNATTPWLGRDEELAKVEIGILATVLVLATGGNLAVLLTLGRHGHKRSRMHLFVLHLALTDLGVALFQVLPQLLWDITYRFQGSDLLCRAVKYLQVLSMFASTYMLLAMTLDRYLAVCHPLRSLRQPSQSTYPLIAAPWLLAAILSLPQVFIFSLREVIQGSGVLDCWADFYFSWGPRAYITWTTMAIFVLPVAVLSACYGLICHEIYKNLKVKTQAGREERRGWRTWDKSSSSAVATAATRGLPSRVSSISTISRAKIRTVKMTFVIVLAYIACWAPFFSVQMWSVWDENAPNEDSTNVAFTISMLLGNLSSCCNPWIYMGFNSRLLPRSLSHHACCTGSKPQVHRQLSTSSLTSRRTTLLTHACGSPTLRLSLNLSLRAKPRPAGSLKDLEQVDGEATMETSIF
Description: The ability of compounds of the invention to act as V3 antagonists in a physiologically relevant system was determined by measuring their ability to block the release of adrenocorticotropic hormone (ACTH) from anterior pituitary corticotrophs in response to treatment with arginine vasopressin (AVP).
Anterior pituitary corticotrophs were prepared from adult female Sprague-Dawley rats and seeded into 48 well plates. The cells were cultured for 4 days prior to exposure to compound. Test compounds were prepared at […] in 100% DMSO. Cells were exposed to a dose response of test compounds for 20 minutes (10^−8 mol.L^−1-10^−5 mol.L^−1). The final concentration of DMSO in the assay was kept constant at 0.3%. The cells were then exposed to 3×10^−9 mol.L^−1 AVP for 120 minutes. Supernatants were harvested and stored at −20° C. ACTH levels were subsequently measured by ELISA following the manufacturer's instructions (Immunodiagnostic systems, UK (Cat No. DX-SDX018)). Each treatment was carried out in quadruplicate and a mean value obtained for the amount of ACTH released. The degree of antagonism was then calculated as a percentage of the amount of ACTH released by agonist alone after adjustment for basal levels of ACTH. A pIC50 was calculated by fitting a Sigmoidal dose response (variable slope) curve with a non-linear (fit) to the data using the software package GraphPad prism. […]

IC50 (V3 receptor) | melting point | SMILES
0.01 to 0.1 µM | – | COc1cccc(-c2nc3ccc(OCCCN4CCCCC4)cc3c(=O)n2CC(=O)NC(C)C)c1 [EXAMPLE 2h, N-Isopropyl-2-[2-(3-methoxyphenyl)-4-oxo-6-(3-piperidin-1-ylpropoxy)-4H-quinazolin-3-yl]acetamide]
0.1 to 1 µM | – | COc1cccc(-c2nc3ccc(-c4cccc(CN(C)C)c4)cc3c(=O)n2CC(=O)NC(C)C)c1 [EXAMPLE 7k, 2-[6-(3-Dimethylaminomethylphenyl)-2-(3-methoxyphenyl)-4-oxo-4H-quinazolin-3-yl]-N-isopropylacetamide]
– | 161 to 163 °C | CCN(CC)C[C@H](C)COc1ccc2nc(-c3cccc(OC)c3)n(CC(=O)NC(C)C)c(=O)c2c1 [Example 4a, (S)-(+)-2-[6-(3-Diethylamino-2-methylpropoxy)-2-(3-methoxyphenyl)-4-oxo-4H-quinazolin-3-yl]-N-isopropylacetamide]
